Measurements: US20220017833A1, “Methods and Compositions for Scavenging Sulfides from Hydrocarbon Fluids and Aqueous Streams” (Nexgen Oilfield Chemicals, LLC, priority 2019, published 2022)

How the values were obtained:
[1] = Long Reaction Time Capacity Test; details: 20 g test
Text: Referring now to FIG. 1, therein is schematically depicted a sulfide scavenger testing system 100 comprising a gas source 2, a flow regulator 4, gas treatment vessel 6, and a sulfide measurement device 8. In one testing embodiment, gas (not shown) is flowed from gas source 2 via gas feed piping 10 into flow regulator 4, which regulates gas flow to gas treatment vessel 6 via regulated gas feed piping 12. The regulated gas flows into gas treatment vessel 6 via a bottom inlet 14 thereof, where it comes into contact with a volume of liquid 16 comprising a sulfide scavenger system (not separately labeled). The gas, having been treated by the liquid, flows out of a top end 18 of gas treatment vessel 6 and flows into sulfide measurement device 8 via treated gas outlet piping 20.
In one embodiment, the gas contained in gas source 2 consists substantially of about 15% H2S, and about 3% CO2, with the remainder being Methane. In one embodiment, gas flow from the flow regulator 4 is controlled such that the gas is flowed into the gas treatment vessel 6 at a flow rate of 100 mL/min. up to 500 mL/min. In one embodiment, a gas sparging device, such as a fine pore frit (not shown), is utilized to better distribute the gas into the scavenger liquid. In one embodiment, the gas treatment vessel 6 contains about 20 g of a liquid H2S scavenger, such as one or more diaminols/diaminacetals in a chemical system as described above. In one aspect, to the extent possible, H2S and/or CO2 are scavenged from the gas by the scavenger and the treated (“sweet”) gas exits top end 18 of treatment vessel 6. In one embodiment, sulfide measurement device 8 monitors the concentration of H2S leaving treatment vessel 6. in the gas phase. In other embodiments (not shown), a CO2 measurement device may be similarly employed to monitor the concentration of CO2 leaving treatment vessel 6 in the gas phase.
In one embodiment, gas is flowed through sulfide scavenger testing system 100 until the outlet H2S concentration reaches a 4,000 ppm target, at which point the test is concluded. This relative time duration before the target is reached is used to compare H2S scavenger capacity given the kinetics of each sulfide scavenger system. The longer the duration, the better the capacity.
In this test, methane containing 15% H2S and 3% CO2 by weight is sparged via a fine pore frit (not shown) at 100 mL/min through a column of 20 g of scavenger solution (See FIG. 1). The fine bubbles produced rise slowly, providing plenty of time, plenty of surface area, and a short path through which the H2S must diffuse to the scavenger in the liquid 16. Detector 8 on the outlet line 20 is used to measure H2S concentration in the exiting gas. The times to first detection (FD), at a threshold of 15 ppm, and to complete breakthrough (BT), at the detector saturation of 4000 ppm (0.4%), are recorded. This test is designed to measure the effective scavenging capacity in applications with long contact times.
Note that the true total capacity of a scavenger with infinite time to react is simply equal to the stoichiometry of the reaction—the moles of H2S consumable per mole of scavenging molecule, which can be calculated. This Long Reaction Time Capacity measurement falls short of that ultimate stoichiometric capacity and so is still reaction rate dependent, just less so than the Short Reaction Time Capacity Test.

[2] = Storage Capacity Loss Test; format: physicochemical; details: for Min to BT / Min to FD: Short Reaction Time Capacity Test, diaminol in water + 10.00 g MeOH, 20 g test
Experimental: This test compares the scavenging capacity after 24 hours of storage of the scavenger system at room temperature to that after 72 hours of storage thereof at room temperature. In one embodiment, a sample of the scavenger system is made fresh and split in two portions. The Short Reaction Time Capacity Test is run on one portion after standing 24 hours on the bench at room temperature. Then the same test is run on the other portion after standing 72 hours on the bench at room temperature. The two measured capacities are compared to see if the product degrades in storage. Importantly, some scavengers lose activity with time due to secondary reactions and re-equilibrations that degrade their active form.
Table 5 compares different alkyl substituents on glyoxy alkyl diaminols. These compounds were prepared by reacting one mole of glyoxal, as a 40% aqueous solution, with 2.1 moles of various primary amines in a sufficient amount of MeOH to keep the product from separating into an aqueous layer and a non-aqueous layer. For each amine substituent: methyl (Me), ethyl (Et), normal-propyl (n-Pr), iso-propyl (i-Pr), and iso-propanol [1-propan-2-ol] (i-PrOH), the presence or absence of alpha branching on that substituent is noted. The weight ratios of the diaminols, water, and MeOH, are listed, along with their equivalent weights (Eq. Wt.) and the total equivalents per 20 g test (Eq/test). To measure the product stability, the Storage Capacity Loss between 24 and 72 hours was determined. As described earlier, a fresh sample of the scavenger system is split in two portions. The Short Reaction Time Capacity Test is run on one portion after standing 24 hours on the bench at room temperature. Then the same test is run on the other portion after standing 72 hours on the bench at room temperature. Both the 24-hr and 72-hr capacities (Min to FD and BT) and molar capacities (Min/Eq FD and BT) are listed in the table with the percent capacity loss for each substituent calculated below it. […] The others lost 34% to 77% of their scavenging capacity in 48 hours (72-24), presumably due to secondary reactions and re-equilibrations that degraded their active form. In this system employing only methanol, all of these compositions failed both the Hot Spray Fouling Test and the Spent Water Flowability Test. Two of them, the iso-propylamine [propan-2-amine] and the iso-propanolamine [1-aminopropan-2-ol] passed the Spent Solids Fouling Test.

[3] = Spent Solids Fouling Test; format: physicochemical; details: Table 5, glyoxy alkyl diaminol in water and MeOH only
Text: In every application, the active component of the scavenger system reacts with H2S to from a reaction product. Once all the active scavenger has been so reacted, it is spent. […] Thioethers are much less water soluble than amines, so the reaction products are often insoluble. Thioether bridges also connect spent scavenger molecules to each other, thereby forming insoluble polymeric solids. These solids accumulate and foul (interfere with the function) of the vessel, line, or equipment to which the scavenger is being fed. […] If any solids or insoluble viscous liquids are observed poorly dispersed in the spent scavenger system or clinging to the sides of the vessel, the scavenging system employed in that Long Reaction Time Capacity Test fails this test. A homogeneous, single-phase solution or thin layer of readily flowable non-sticking liquid constitutes a pass.

[4] = Eq/test Triazine 0.068, GIDAc 0.185, GIDA 0.076
[5] = Triazine 7.50 g + 12.50 g water, GIDAc 13.00 g as GID + 7.00 g MeOH, GIDA 6.68 g as GID, 3.32 g water, 8.00 g MeOH, 2.00 g BuOH
[6] = 72-24 Hrs storage at room temperature
[7] = Sample Age 24 Hrs at room temperature
[8] = Sample Age 72 Hrs at room temperature

## CC(C)NC(O)C(O)NC(C)C (centres unmarked) [GIDA, 1,2-bis[(propan-2-yl)amino]ethane-1,2-diol]
[1]; [4]
  Min/Eq BT: 805 Min/Eq
  Min/Eq FD: 607 Min/Eq
[1]; [5]
  Min to BT: 61 min
  Min to FD: 46 min
[2]; [6]
  BT Capacity Loss: −2%
  FD Capacity Loss: 0%
[2]; Sample Age 24 Hrs
  Min/Eq BT: 528 Min/Eq
  Min/Eq FD: 409 Min/Eq
[2]; [7]
  Min to BT: 40 min
  Min to FD: 31 min
[2]; Sample Age 72 Hrs
  Min/Eq BT: 541 Min/Eq
  Min/Eq FD: 409 Min/Eq
[2]; [8]
  Min to BT: 41 min
  Min to FD: 31 min
[2]; in 48 hours (72-24), room temperature
  loss of scavenging capacity (degradation) in storage: no degradation
[3]; listed as i-Pr
  Spent Solids Fouling: Pass
[3]; listed as iso-propylamine
  Spent Solids Fouling: passed
